Assay results published in US20130022620A1, “ASSAYS AND METHODS PERTAINING TO PRE-AMYLOID INTERMEDIATES” (priority 2011, published 2013).

Columns and labels:
rat INS-1 β-cells = test: AlamarBlue cell viability assay of β-cells; assay type: cell-based
Procedure: Transformed rat insulinoma-1 (INS-1) β-cells (which express RAGE) are a pancreatic beta cell line commonly used for studies of h-IAPP induced toxicity. INS-1 cells were grown in RPMI 1640 supplemented with 10% fetal bovine serum (FBS), 11 mM glucose, 10 mM Hepes, 2 mM L-glutamine, 1 mM sodium pyruvate, 50 μM β-mercaptoethanol, 100 U/ml penicillin, and […] streptomycin. Cells were maintained at 37° C./5% CO2.
(§1) Cyto-toxicity was measured by AlamarBlue assay. INS-1 β-cells were seeded at a density of 30,000 cells per well in 96-well plates and cultured for 24 hours prior to stimulation with IAPP. Human and rat IAPP were dissolved and incubated in 16 mM tris HCl (pH 7.4, 25° C.) prior to cell stimulation. AlamarBlue was diluted ten-fold in culture media and cells were incubated for 5 hours at 37° C. Fluorescence (excitation 530; emission 590 nm) was measured on a Beckman Coulter DTX880 fluorescent plate reader. Values calculated were relative to those of control cells treated with buffer only. All values represent means±SEM (n=3).
Changes in cell morphology were examined by light microscopy to provide a second method of evaluating cell viability. Transformed rat INS-1 beta cells were photographed immediately prior to assessment of toxicity by Alamar blue cell viability assays. Images were taken using an Olympus BX-61 light microscope.

sRAGE [1] = target: T1, sRAGE (Homo sapiens, UniProt Q15109); test: Surface plasmon resonance binding to immobilized sRAGE; conditions: 20 μM h-IAPP
T1 construct: the soluble extracellular domain of RAGE (sRAGE); made in house; host or cells: Sf9 insect cells (baculovirus)
Procedure: A 20 μM h-IAPP solution was prepared in 16 mM tris HCl buffer (pH 7.4) and aliquots of the reaction were analyzed for binding at various incubation times after peptide dissolution. All SPR binding experiments were carried out on a GE Healthcare SPR instrument in the laboratory of Dr. Donald Landry at Columbia University Medical Center.

sRAGE [2] = target: T1, sRAGE; test: Tryptophan fluorescence quenching assay of sRAGE binding; conditions: sRAGE added at different time points of the reaction, 1:1 molar ratio
Source text: The quenching of tryptophan fluorescence indicates binding. Fluorescence measurements were made at right angle in a […] dual path length quartz cuvette, using a Photon Technology International fluorescent spectrometer (280 nm excitation and 350 nm emission). Background fluorescence from buffer and IAPP peptides were negligible. The fluorescence quantum yield reported for each time point is an average of 20 reads over 20 seconds (2.5 nm bandwidth and 1 second integration time). Final solution conditions contained 16 mM tris HCl (pH 7.4).

mouse pancreatic islets = test: AlamarBlue cell viability assay of pancreatic islets; assay type: cell-based; conditions: FVB
[3] = test system: mouse aortic smooth muscle cells; test: AlamarBlue cell viability assay of aortic smooth muscle cells; assay type: cell-based
Procedure: as §1, with “Mouse vascular SMCs were cultured from the aortas of 10-week-old male mice using a modification of the procedure of Tarvo and Barret. See Tarvo et al. Blood Vessels. 1980; 17:110-116. SMCs were cultured following an explant protocol in accordance with institutional guidelines. […] Cyto-toxicity” for “Cyto-toxicity”

[4] = test system: MCP-1 and IL-1β mRNA expression; test: qRT-PCR of MCP-1 and IL-1β mRNA in smooth muscle cells; assay type: cell-based, mouse; conditions: peptide stimulation
Procedure: Mouse vascular SMCs were cultured from the aortas of 10-week-old male mice using a modification of the procedure of Tarvo and Barret. See Tarvo et al. Blood Vessels. 1980; 17:110-116. SMCs were cultured following an explant protocol in accordance with institutional guidelines. Cultures were composed of 95% SM-α-actin positivity based on immunostaining.
Assays for qRT-PCR were carried out in 6-well plates. Total cellular RNA was isolated from h-IAPP stimulated β-cells using Qiagen RNA isolation kit, and the quality of RNA samples was determined by measurement of 260:280 ratio. Only samples with a 260:280 ratio of 2.0 or higher were used for reverse transcription. RNA samples were also treated by RNAse-free DNAse to avoid genomic DNA contamination. One microgram of RNA from each sample was reverse-transcribed to cDNA using MCP-1 and IL-1β primers. Non-template negative controls were also performed to monitor non-specific reactions. RNA isolated from rat IAPP and non-h-IAPP treated beta cells were used as negative controls. Equal amounts of RNA were used in each qRT-PCR reaction, and 18S was used as the internal control for amplification at the same time. qRT-PCR reactions were carried out using an Applied Biosystems 7500 RealTime PCR machine. The relative mRNA contents were normalized using 18S and quantification was carried out using qRT-PCR Quantifier Software.

[5] = assay type: physicochemical
Procedure: We recorded 2D-IR spectra of the intermediate species. The results are consistent with a lack of beta sheet structure and support the CD data (FIG. 4B). […] Samples of h-IAPP intermediates and h-IAPP amyloid fibrils were pelleted at 20,000 G for 20 minutes and the amount of soluble peptide remaining in the supernatant was measured. […] Characterization of the species in the supernatant and resuspended pellet by thioflavin-T and TEM, before addition of the solutions to cultured cells, confirm the absence of amyloid in the soluble phase and the presence of amyloid in the resuspended pellet. […] ANS is a small hydrophobic dye which has been widely used in protein folding studies. It typically binds to partially structured states which are rich in secondary structure, compact, but which have not yet established the final tertiary structure. […] The dye did bind to the final amyloid fibrils; an effect that is mediated in part by electrostatic interactions. A set of p-cyano-phenylalanine (p-cyanoPhe) analogs of h-IAPP were examined to probe further the nature of the toxic intermediate species. h-IAPP contains two phenylalanines at positions 15 and 23 and a single tyrosine located at the C-terminus. A set of three analogs were prepared in which one aromatic residue was replaced by p-cyanoPhe. […] It can also be quenched via FRET to tyrosine. p-CyanoPhe fluorescence is high for unaggregated IAPP and is quenched in the amyloid fibers. The intermediate species have high p-cyanoPhe fluorescence intensity and the value is the same as that of freshly dissolved material.

T1 sequence (Q15109 23-342): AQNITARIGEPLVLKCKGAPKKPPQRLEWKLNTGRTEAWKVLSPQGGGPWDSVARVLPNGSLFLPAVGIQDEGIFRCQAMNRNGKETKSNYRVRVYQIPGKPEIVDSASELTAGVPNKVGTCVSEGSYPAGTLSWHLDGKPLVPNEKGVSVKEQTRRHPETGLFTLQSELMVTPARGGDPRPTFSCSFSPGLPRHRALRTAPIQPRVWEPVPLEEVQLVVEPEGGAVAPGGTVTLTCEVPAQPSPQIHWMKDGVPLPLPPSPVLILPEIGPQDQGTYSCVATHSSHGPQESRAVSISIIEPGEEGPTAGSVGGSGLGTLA

With `CC[C@H](C)[C@H](NC(=O)[C@H](C)NC(=O)CNC(=O)[C@H](Cc1ccccc1)NC(=O)[C@H](CC(N)=O)NC(=O)[C@H](CC(N)=O)NC(=O)[C@H](CO)NC(=O)[C@H](CO)NC(=O)[C@H](Cc1c[nH]cn1)NC(=O)[C@@H](NC(=O)[C@H](CC(C)C)NC(=O)[C@H](Cc1ccccc1)NC(=O)[C@H](CC(N)=O)NC(=O)[C@H](C)NC(=O)[C@H](CC(C)C)NC(=O)[C@H](CCCNC(=N)N)NC(=O)[C@H](CCC(N)=O)NC(=O)[C@@H](NC(=O)[C@H](C)NC(=O)[C@@H]1CSSC[C@H](NC(=O)[C@@H](N)CCCCN)C(=O)N[C@@H](CC(N)=O)C(=O)N[C@@H]([C@@H](C)O)C(=O)N[C@@H](C)C(=O)N[C@@H]([C@@H](C)O)C(=O)N1)[C@@H](C)O)C(C)C)C(=O)N[C@@H](CC(C)C)C(=O)N[C@@H](CO)C(=O)N[C@@H](CO)C(=O)N[C@H](C(=O)N[C@@H](CC(N)=O)C(=O)N[C@H](C(=O)NCC(=O)N[C@@H](CO)C(=O)N[C@@H](CC(N)=O)C(=O)N[C@H](C(=O)N[C@@H](Cc1ccc(O)cc1)C(N)=O)[C@@H](C)O)C(C)C)[C@@H](C)O` [h-IAPP, human islet amyloid polypeptide] the “cell toxicity of amyloid fibrils” value (rat INS-1 β-cells; amyloid fibrils added to cultured cells) was “No toxicity was observed”, the “cell toxicity (AlamarBlue cell viability, light microscopy)” value (rat INS-1 β-cells; peptide incubated in buffer at room temperature for various times, then applied to INS-1 β-cells) was “maximum toxicity was observed at intermediate time points” and the “toxicity of resuspended pellet after ultracentrifugation” value (rat INS-1 β-cells; resuspended pellet added to beta cells) was “the resuspended pellet is not”. For the same compound, the “toxicity of soluble phase after ultracentrifugation” value (rat INS-1 β-cells; supernatant added to beta cells) was “toxic to beta cells”, the “RAGE binding of transiently populated intermediates (SPR)” value (sRAGE [1]; intermediates) was “binds transiently populated intermediates” and the “RAGE binding of monomers or amyloid fibrils (SPR)” value (sRAGE [1]; monomers or amyloid fibrils) was “does not bind to h-IAPP monomers or amyloid fibrils”. For the same compound, the “binding to sRAGE (tryptophan fluorescence quenching)” value (sRAGE [2]) was “wave of fluorescence quenching”, the “loss in viability relative to buffer treatment alone” value (mouse pancreatic islets) was 50% and the “toxicity to smooth muscle cells” value ([3]; h-IAPP intermediates) was “toxic to smooth muscle cells”. The “toxicity to RAGE-null versus wild type SMCs” value ([3]; increasing amounts of h-IAPP toxic species) was “genetic deletion of RAGE protects SMCs from h-IAPP toxicity compared to WT SMCs”, the “MCP-1 and IL-1β mRNA expression in smooth muscle cells” value [4] was “increase in MCP-1 and IL-1β mRNA expression” and the protein pelleted [5] was 6.5%. The “solubility of toxic oligomers (centrifugation)” value [5] was “soluble and cannot be pelleted”, the “solubility of toxic species (ultracentrifugation)” value [5] was “soluble” and the “protein remained in solution” value ([5]; 20 min) was 93.5%.
